From patent US20240343732A1, “COMPOUNDS FOR DEGRADATION OF CYCLIN-DEPENDENT KINASE 7(CDK7)” (QURIENT CO., LTD., priority 2021, published 2024)

How the values were obtained:
CDK1 = biological target: T1, CDK1 (Homo sapiens, UniProt P06493); test: Binding assay (FRET, LanthaScreen Eu, Tracer236) for CDK1; details: for IC50: read-out: CDK1 IC50 (enzyme binding assay)
T1 construct: His; purchased Invitrogen PR4768C
Protocol: (§1) Inhibition activity of compound to CDK7 kinase was tested in a binding assay which was applied to the FRET (fluorescence resonance energy transfer) principle from the europium (Eu) donor fluorophore to the acceptor fluorophore on the kinase tracer. Test compounds were made to 1.125 mM of compound solution, and then this compound solution 4-fold serial diluted in 8 steps using an automated liquid handler (JANUS™, PerkinElmer). 80 nL/well of each diluted compound solution was added into the 384-well plate (Greiner, Cat #784075) first and 7.5 ul/well of working solution [5 nM of CDK7/CycH/MNAT1 (Invitrogen, Cat #PR6749B), 4 nM of Biotin anti-His Tag Antibody (Invitrogen, Cat #PV6090), and LanthaScreen® Eu-Streptavidin (Invitrogen, Cat #PV6025)] was added. After mixing the solution well, the same volume with the working solution of Tracer236 (Invitrogen, Cat #PV5592) was added into each well in the plate. The plate was incubated for 60 minutes at room temperature and then all the fluorescence were measured using Envision leader (Perkin Elmer, USA) [Laser as excitation light; […] as the first and the second emission filter]. Data was analysed using XL Fit software.
(§2) All of the synthesized compounds were screened in the above-mentioned assay procedure. To identify the inhibition activity of compounds for other CDKs including CDK1 (Invitrogen, Cat #PR4768C), CDK2 (Invitrogen, Cat #PR4448B) and CDK5 (Invitrogen, Cat #PR8543B) were tested using the same protocol under reasonable concentration of Tracer236 and kinases for each assay. The formula for the assay buffer summarized in below table.

CDK2 = biological target: T2, CDK2 (Homo sapiens, UniProt P24941); test: Binding assay (FRET, LanthaScreen Eu, Tracer236) for CDK2; details: for IC50: read-out: CDK2 IC50 (enzyme binding assay)
T2 construct: His; purchased Invitrogen PR4448B
Protocol: as §1, §2

CDK5 = biological target: T3, CDK5 (Homo sapiens, UniProt Q00535); test: Binding assay (FRET, LanthaScreen Eu, Tracer236) for CDK5; details: for IC50: read-out: CDK5 IC50 (enzyme binding assay)
T3 construct: His; purchased Invitrogen PR8543B
T3 sequence (Q00535 whole entry): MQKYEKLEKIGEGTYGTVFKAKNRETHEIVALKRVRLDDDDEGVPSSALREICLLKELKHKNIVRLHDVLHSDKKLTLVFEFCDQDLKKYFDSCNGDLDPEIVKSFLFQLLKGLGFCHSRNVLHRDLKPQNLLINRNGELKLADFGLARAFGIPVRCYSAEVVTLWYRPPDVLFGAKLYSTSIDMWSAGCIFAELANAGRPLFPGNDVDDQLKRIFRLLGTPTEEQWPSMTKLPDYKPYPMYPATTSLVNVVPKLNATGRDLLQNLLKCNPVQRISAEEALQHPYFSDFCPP
T3 sequence (Q15078 99-307 partner limits assumed): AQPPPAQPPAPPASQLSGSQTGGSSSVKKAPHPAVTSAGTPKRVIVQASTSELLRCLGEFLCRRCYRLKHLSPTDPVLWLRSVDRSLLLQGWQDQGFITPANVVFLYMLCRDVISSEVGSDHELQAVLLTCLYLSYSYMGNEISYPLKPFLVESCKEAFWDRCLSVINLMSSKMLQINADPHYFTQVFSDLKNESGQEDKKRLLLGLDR
Protocol: as §1, §2

CDK7/CycH/MNAT1 = biological target: T4, CDK7/CycH/MNAT1 (Homo sapiens, UniProt P50613); test: Binding assay (FRET, LanthaScreen Eu, Tracer236) for CDK7; details: read-out: CDK7 IC50 (enzyme binding assay)
T4 construct: His; purchased Invitrogen PR6749B
T4 sequence (P50613 whole entry): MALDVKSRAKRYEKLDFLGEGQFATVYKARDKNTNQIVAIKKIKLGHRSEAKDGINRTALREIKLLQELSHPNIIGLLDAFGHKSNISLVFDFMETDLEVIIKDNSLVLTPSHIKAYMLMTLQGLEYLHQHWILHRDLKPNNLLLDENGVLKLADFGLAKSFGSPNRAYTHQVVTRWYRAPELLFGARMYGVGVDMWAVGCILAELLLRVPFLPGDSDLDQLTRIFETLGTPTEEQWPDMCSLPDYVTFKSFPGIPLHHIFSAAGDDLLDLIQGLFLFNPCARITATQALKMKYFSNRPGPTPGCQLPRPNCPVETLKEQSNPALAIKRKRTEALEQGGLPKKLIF
T4 sequence (P51946 whole entry partner): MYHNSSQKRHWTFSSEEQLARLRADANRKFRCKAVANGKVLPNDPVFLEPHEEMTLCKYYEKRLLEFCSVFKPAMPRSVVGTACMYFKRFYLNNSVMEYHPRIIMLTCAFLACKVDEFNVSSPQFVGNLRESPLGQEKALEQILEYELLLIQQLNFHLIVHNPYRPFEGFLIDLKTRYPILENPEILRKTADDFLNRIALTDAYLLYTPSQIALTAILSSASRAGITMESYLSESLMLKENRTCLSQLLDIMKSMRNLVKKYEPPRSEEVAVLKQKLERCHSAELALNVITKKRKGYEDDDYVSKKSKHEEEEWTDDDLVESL
T4 sequence (P51948 whole entry partner): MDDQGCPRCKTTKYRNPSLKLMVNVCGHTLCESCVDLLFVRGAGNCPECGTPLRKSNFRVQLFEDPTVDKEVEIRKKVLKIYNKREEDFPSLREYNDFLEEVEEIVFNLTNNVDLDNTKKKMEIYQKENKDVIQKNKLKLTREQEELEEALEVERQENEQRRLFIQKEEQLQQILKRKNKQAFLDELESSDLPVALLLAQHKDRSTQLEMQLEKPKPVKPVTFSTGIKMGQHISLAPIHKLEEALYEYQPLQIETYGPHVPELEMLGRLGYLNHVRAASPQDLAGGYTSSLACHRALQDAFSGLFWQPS
Protocol: as §1, §2

CDK7 protein = biological target: T5, CDK7 protein (Homo sapiens, UniProt P50613); test: Western blot assay for CDK7 protein degradation in A2780 cells; format: cell-based; details: 24 hours; for DC50: read-out: Compound concentration that caused 50% CDK7 protein degradation in A2780 cells (DC50);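 for all read-outs here: A is DC50 up to 100 nM B is 100 to 1000 nM C is above 1000 nM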
T5 construct: To verify endogenous CDK7 protein degradation; endogenous in cells; host or cells: A2780 (ECACC 93112519)
T5 sequence (P50613 whole entry): as the sequence (P50613 whole entry) above
Protocol: Human ovarian cancer cell line, A2780 (Cat #93112519) was obtained from ECACC. Cells were grown in RPMI-1640 media (Invitrogen, Cat #22400105) supplemented with 10% FBS (Hyclone, Cat #SH30084.03) and 1% penicillin/streptomycin (Hyclone, Cat #SV30010) and cultured at 37° C., 5% Co2 in a humidified chamber. All cell lines were routinely tested for mycoplasma.
To verify endogenous CDK7 protein degradation upon treatment of CDK7-specific degrader, the western blot assay was conducted a 24 hours' time period. 6×10^5 cells/well of A2780 cells were plated in 6-well plate. After 24 hours, the cells were treated with various concentrations of the compound corresponding range. DMSO solvent without compound served as a control and final DMSO concentration was not to exceed 0.1% of total volume. After 24 hours of incubation at 37° C., 5% Co2 incubator, cells were collected and lysed with 60 ul of lysis buffer. Collected lysates were incubated for 30 min on ice and collect supernatant through centrifugation at 12,000 rpm for 10 min at 4° C. The protein in lysates were quantified with BCA protein quantification kit (Pierce, Cat #23227) following manufacture's protocol. Cell lysates were diluted into 1 ug/ul of concentration with lysis buffer. 20 ug of protein was loaded to each well of 4˜12% Bis-Tris gel (Invitrogen, Cat #NP0336BOX) with MOPS running buffer (Invitrogen, Cat #NP0001). The proteins were transferred from gel to membrane and incubated with primary antibody as followed at 4° C. overnight; CDK7 (CST, Cat #2090S) and β-actin (Santa Cruz, Cat #sc-47778) 1:20,000. The signals were developed and acquired with ImageQuant™ LAS 4000.

T1 sequence (P06493 whole entry): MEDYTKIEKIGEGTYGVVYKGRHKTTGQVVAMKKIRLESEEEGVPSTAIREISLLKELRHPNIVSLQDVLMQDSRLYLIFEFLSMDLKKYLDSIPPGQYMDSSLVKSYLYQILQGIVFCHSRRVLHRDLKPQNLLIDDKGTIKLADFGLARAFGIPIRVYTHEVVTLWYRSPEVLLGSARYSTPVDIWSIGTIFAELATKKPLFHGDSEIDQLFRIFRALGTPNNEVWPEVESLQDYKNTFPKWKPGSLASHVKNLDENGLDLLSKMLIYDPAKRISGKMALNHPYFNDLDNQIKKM
T1 sequence (P14635 whole entry partner): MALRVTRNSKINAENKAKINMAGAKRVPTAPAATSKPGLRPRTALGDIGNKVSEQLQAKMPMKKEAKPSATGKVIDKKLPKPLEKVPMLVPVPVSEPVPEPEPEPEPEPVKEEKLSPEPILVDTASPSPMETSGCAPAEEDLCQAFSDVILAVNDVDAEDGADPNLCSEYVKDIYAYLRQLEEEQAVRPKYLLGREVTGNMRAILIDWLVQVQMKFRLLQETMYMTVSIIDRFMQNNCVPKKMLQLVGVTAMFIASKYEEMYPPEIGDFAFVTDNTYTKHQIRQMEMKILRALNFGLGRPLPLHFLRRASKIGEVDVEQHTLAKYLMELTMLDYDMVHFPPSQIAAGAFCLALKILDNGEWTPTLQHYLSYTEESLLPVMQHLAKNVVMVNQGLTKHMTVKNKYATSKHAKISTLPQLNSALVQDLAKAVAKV

Structure (SMILES) | CDK1/CDK7: Selectivity of CDK7 inhibition over CDK1 inhibition (CDK1) | IC50 (CDK1) | CDK2/CDK7: Selectivity of CDK7 inhibition over CDK2 inhibition (CDK2) | IC50 (CDK2) | CDK5/CDK7: Selectivity of CDK7 inhibition over CDK5 inhibition (CDK5) | IC50 (CDK5) | IC50 (CDK7/CycH/MNAT1) | Compound concentration that caused 50% CDK7 protein degradation in A2780 cells (DC50, nM) (CDK7 protein) | DC50 (CDK7 protein)
CC(C)c1cnn2c(NCc3ccccc3-c3nccc4cc(NC(=O)COCCOCCOCCNC(=O)CNc5cccc6c5C(=O)N(C5CCC(=O)NC5=O)C6=O)ccc34)nc(O[C@@H]3CCCNC3)nc12 (some centres unmarked) [Compound 9] | A (A indicates [fold] > 500) | > 1000 nM | A (A indicates [fold] > 500) | > 1000 nM | A (A indicates [fold] > 500) | > 1000 nM | ≤ 100 nM | B or A | –
CC(C)c1cnn2c(NCc3ccccc3-c3nccc4cc(NCCOCCOCCNC(=O)CNc5ccc6c(c5)C(=O)N(C5CCC(=O)NC5=O)C6=O)ccc34)nc(O[C@@H]3CCCNC3)nc12 (some centres unmarked) [Compound 10] | A (A indicates [fold] > 500) | > 1000 nM | A (A indicates [fold] > 500) | > 1000 nM | A (A indicates [fold] > 500) | > 1000 nM | ≤ 100 nM | B or A | 100 to 1000 nM
Cc1ncsc1-c1ccc(CNC(=O)[C@@H]2C[C@@H](O)CN2C(=O)[C@@H](NC(=O)C2(F)CC2)C(C)(C)C)c(OCCOCCOCCNc2ccc3c(-c4ccccc4CNc4nc(O[C@@H]5CCCNC5)nc5c(C(C)C)cnn45)nccc3c2)c1 [Compound 11] | A (A indicates [fold] > 500) | > 1000 nM | A (A indicates [fold] > 500) | > 1000 nM | A (A indicates [fold] > 500) | > 1000 nM | ≤ 100 nM | – | ≤ 100 nM
CNCC(=O)N[C@H](C(=O)N1C[C@@H](Oc2cccc(OCCOCCOCCNc3ccc4c(-c5ccccc5CNc5nc(O[C@@H]6CCCNC6)nc6c(C(C)C)cnn56)nccc4c3)c2)C[C@H]1C(=O)N[C@@H]1CCCc2ccccc21)C1CCCCC1 [Compound 12] | A (A indicates [fold] > 500) | > 1000 nM | A (A indicates [fold] > 500) | > 1000 nM | A (A indicates [fold] > 500) | > 1000 nM | ≤ 100 nM | – | > 1000 nM
CC(C)C[C@H](NC(=O)[C@@H](O)[C@H](N)Cc1ccccc1)C(=O)NCCOCCOCCNc1ccc2c(-c3ccccc3CNc3nc(O[C@@H]4CCCNC4)nc4c(C(C)C)cnn34)nccc2c1 [Compound 13] | A (A indicates [fold] > 500) | > 1000 nM | A (A indicates [fold] > 500) | > 1000 nM | A (A indicates [fold] > 500) | > 1000 nM | ≤ 100 nM | – | > 1000 nM
CC(C)c1cnn2c(NCc3ccccc3-c3nccc4cc(NCCOCCOCCNC(=O)CNc5cccc6c5CN(C5CCC(=O)NC5=O)C6=O)ccc34)nc(O[C@@H]3CCCNC3)nc12 (some centres unmarked) [Compound 14] | A (A indicates [fold] > 500) | > 1000 nM | A (A indicates [fold] > 500) | > 1000 nM | A (A indicates [fold] > 500) | > 1000 nM | ≤ 100 nM | B or A | 100 to 1000 nM
